Laboratory results from patent publication US10981926B2 (Janssen Pharmaceutica NV, priority 2016, dated 2021).

Key:
rGABA-gated Cl− channel = experiment: GABA-Gated Cl Channel Antagonist Radioligand Binding Assay; design: species or system rat; conditions: 10 μM single point, [35S]-TBPS, cerebral cortex membrane homogenates
Description: GABA-gated C1 Chanel assays were performed at CEREP according to the following method. Membrane homogenates of cerebral cortex (120 μg protein) were incubated for 120 min at 22° C. with 3 nM […] in the absence or presence of the test compound in a buffer containing 50 mM Na2HPO4/KH2PO4 (pH 7.4) and 500 mM NaCl. Nonspecific binding was determined in the presence of 20 μM picrotoxinin. Following incubation, the samples were filtered rapidly under vacuum through glass fiber filters (GF/B, Packard) presoaked with 0.3% PEI and rinsed several times with ice-cold 50 mM Tris-HCl using a 96-sample cell harvester (Unifilter, Packard). The filters were dried then counted for radioactivity in a scintillation counter (Topcount, Packard) using a scintillation cocktail (Microscint 0, Packard). The results are expressed as a percent inhibition of the control radio ligand specific binding. The standard reference compound is picrotoxinin, which was tested in each experiment at several concentrations to obtain a competition curve from which its IC50 was calculated. In this assay, the following representative compounds disclosed herein had recorded activities at a 10 μM single point concentration in the GABA-gated Cl— Channel Binding Assay.

[1] = target: T1, wild-type Androgen Receptor (AR-wt) (Homo sapiens (Human), UniProt P10275); experiment: LNCaP-AR-wt ANT reporter assay (antagonist mode); format: cell-based; conditions: for IC50 / LNCaP-AR-wt ANT pIC50: pIC50 = −Log10(IC50 in Molar); for IC50: read-out: LNCaP-AR-wt ANT pIC50 (converted); for Emax: read-out: LNCaP-AR-wt ANT MAX % Inh
[2] = target: T2, F876L mutant Androgen Receptor (AR-F876L) (Homo sapiens (Human), UniProt P10275, F877L); experiment: LNCaP-AR-F876L AG reporter assay (agonist mode); format: cell-based; conditions: for EC50: pEC50 = −Log10(EC50 in Molar), read-out: LNCaP-AR-F876L AG pEC50 (converted); for Emax: read-out: LNCaP-AR-F876L AG MAX % Stim
[3] = target: T2, F876L mutant Androgen Receptor (AR-F876L); experiment: LNCaP-AR-F876L ANT reporter assay (antagonist mode); format: cell-based; conditions: for IC50 / LNCaP-AR-F876L ANT pIC50: pIC50 = −Log10(IC50 in Molar); for IC50: read-out: LNCaP-AR-F876L ANT pIC50 (converted); for Emax: read-out: LNCaP-AR-F876L ANT MAX % Inh
[4] = target: T1, wild-type Androgen Receptor (AR-wt); experiment: LNCaP-AR-wt AG reporter assay (agonist mode); format: cell-based; conditions: for EC50: pEC50 = −Log10(EC50 in Molar), read-out: LNCaP-AR-wt AG pEC50 (converted); for Emax: read-out: LNCaP-AR-wt AG MAX % Stim
[5] = maximum % inhibition of R1881 control response over the tested concentration range
[6] = maximum % stimulation (agonist response) over the tested concentration range
[7] = antagonist mode, maximum % inhibition of R1881 control response over tested concentration range
[8] = agonist mode, maximum % stimulation over tested concentration range

T1 sequence (P10275 whole entry): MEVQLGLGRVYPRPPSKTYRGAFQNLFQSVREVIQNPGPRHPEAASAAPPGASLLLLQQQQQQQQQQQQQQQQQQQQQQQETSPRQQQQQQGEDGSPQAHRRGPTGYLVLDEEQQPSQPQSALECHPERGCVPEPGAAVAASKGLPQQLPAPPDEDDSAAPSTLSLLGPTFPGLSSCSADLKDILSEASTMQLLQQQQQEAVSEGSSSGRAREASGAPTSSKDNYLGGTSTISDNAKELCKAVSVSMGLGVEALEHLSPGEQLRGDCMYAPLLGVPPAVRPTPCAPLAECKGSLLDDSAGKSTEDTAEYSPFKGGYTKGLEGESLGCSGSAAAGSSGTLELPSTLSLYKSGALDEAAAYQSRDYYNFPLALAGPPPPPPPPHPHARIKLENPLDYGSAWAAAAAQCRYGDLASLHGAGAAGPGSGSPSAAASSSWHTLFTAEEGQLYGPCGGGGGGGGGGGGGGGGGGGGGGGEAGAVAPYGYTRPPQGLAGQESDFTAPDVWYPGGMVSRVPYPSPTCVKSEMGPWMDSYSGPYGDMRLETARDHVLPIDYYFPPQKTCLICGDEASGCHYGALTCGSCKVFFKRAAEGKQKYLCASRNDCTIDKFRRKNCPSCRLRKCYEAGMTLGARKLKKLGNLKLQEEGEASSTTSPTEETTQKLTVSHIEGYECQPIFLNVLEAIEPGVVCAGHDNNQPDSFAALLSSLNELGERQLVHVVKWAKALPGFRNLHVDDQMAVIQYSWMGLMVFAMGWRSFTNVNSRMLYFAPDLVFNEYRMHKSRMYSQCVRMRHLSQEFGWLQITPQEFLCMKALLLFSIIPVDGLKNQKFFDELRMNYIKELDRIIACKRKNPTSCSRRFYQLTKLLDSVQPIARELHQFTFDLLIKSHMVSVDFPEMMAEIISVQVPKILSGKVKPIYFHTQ
T2 sequence (P10275 whole entry F877L): as the sequence (P10275 whole entry) above, with F877L counted along it

Row | rGABA-gated Cl− channel % inh @10 μM (rGABA-gated Cl− channel) | IC50 ([1]; antagonist mode) | Emax [1, 5] | EC50 ([2]; agonist mode) | Emax [2, 6] | IC50 ([3]; antagonist mode) | Emax [3, 5] | EC50 ([4]; agonist mode) | Emax [4, 6] | Emax [1, 7] | Emax [2, 8] | Emax [3, 7] | Emax [4, 8] | LNCaP-AR-wt ANT pIC50 ([1]; antagonist mode) | LNCaP-AR-F876L ANT pIC50 ([3]; antagonist mode) | SMILES
1 | 73.4% | 77.6 nM | 101% | > 15100 nM | 0.5% | 60.3 nM | 98.2% | > 15100 nM | 0.3% | – | – | – | – | – | – | CN1CC[C@H](Oc2ccc(N3C(=S)N(c4cnc(C#N)c(C(F)(F)F)c4)C(=O)C34CCC4)cc2)[C@@H](F)C1 (racemic) [Cpd 92, 5-[8-[(3SR, 4SR)-4-[(3-fluoro-1-methyl-4-piperidyl)oxy]phenyl]-5-oxo-7-thioxo-6,8-diazaspiro[3.4]octan-6-yl]-3-(trifluoromethyl)pyridine-2-carbonitrile]
2 | 26.5% | 112 nM | 101% | > 15100 nM | 0.3% | 44.7 nM | 99.7% | > 15100 nM | 0.1% | – | – | – | – | – | – | N#Cc1ncc(N2C(=O)C3(CCC3)N(c3ccc(O[C@H]4CCNC[C@@H]4F)cc3)C2=S)cc1C(F)(F)F (racemic) [Cpd 95, 5-[8-[(3SR, 4SR)-4-[(3-fluoro-4-piperidyl)oxy]phenyl]-5-oxo-7-thioxo-6,8-diazaspiro[3.4]octan-6-yl]-3-(trifluoromethyl)pyridine-2-carbonitrile]
3 | 26.5% | 126 nM | 100% | > 15100 nM | 0.4% | 74.1 nM | 99.9% | > 15100 nM | 0.9% | – | – | – | – | – | – | N#Cc1ncc(N2C(=O)C3(CCC3)N(c3ccc(O[C@H]4CCNC[C@H]4F)cc3)C2=S)cc1C(F)(F)F (racemic) [Cpd 96, 5-[8-(3RS, 4SR) [4-[(3-fluoro-4-piperidyl)oxy]phenyl]-5-oxo-7-thioxo-6,8-diazaspiro[3.4]octan-6-yl]-3-(trifluoromethyl)pyridine-2-carbonitrile]
4 | 83.9% | 155 nM | 102% | > 15100 nM | 0.7% | 123 nM | 98.3% | > 15100 nM | 0.3% | – | – | – | – | – | – | N#Cc1ncc(N2C(=O)C3(CCC3)N(c3ccc(O[C@@H]4CCN[C@H](C(F)(F)F)C4)cc3)C2=S)cc1C(F)(F)F (racemic) [Cpd 101, 5-[5-oxo-7-thioxo-8-[4-[[(2SR,4RS)-2-(trifluoromethyl)-4-piperidyl]oxy]phenyl]-6,8-diazaspiro[3.4]octan-6-yl]-3-(trifluoromethyl)pyridine-2-carbonitrile]
5 | 52.1% | 79.4 nM | 99.7% | > 15100 nM | 0.3% | 49 nM | 99.6% | > 15100 nM | 0.4% | – | – | – | – | – | – | CN1CC[C@H](Oc2ccc(N3C(=S)N(c4cnc(C#N)c(C(F)(F)F)c4)C(=O)C34CCC4)cc2)[C@H](F)C1 (racemic) [Cpd 102]
6 | 87.1% | 174 nM | 102% | > 15100 nM | 0.7% | 219 nM | 99.7% | > 15100 nM | 0.1% | – | – | – | – | – | – | N#Cc1ncc(N2C(=O)C3(CCC3)N(c3ccc(O[C@@H]4CCN[C@@H](C(F)(F)F)C4)cc3)C2=S)cc1C(F)(F)F (racemic) [Cpd 106, 5-[5-oxo-7-thioxo-8-[4-[[(2RS,4RS)-2-(trifluoromethyl)-4-piperidyl]oxy]phenyl]-6,8-diazaspiro[3.4]octan-6-yl]-3-(trifluoromethyl)pyridine-2-carbonitrile]
7 | 90.4% | 69.2 nM | – | > 15100 nM | – | 81.3 nM | – | > 15100 nM | – | 100% | 1.7% | 99.1% | 0% | – | – | CN1CCC(Oc2ccc(N3C(=S)N(c4cnc(C#N)c(C(F)(F)F)c4)C(=O)C34CCC4)cc2)CC1=O (racemic) [Cpd 189, (R,S)-5-[8-[4-[(1-methyl-2-oxo-4-piperidyl)oxy]phenyl]-5-oxo-7-thioxo-6,8-diazaspiro[3.4]octan-6-yl]-3-(trifluoromethyl)pyridine-2-carbonitrile]
8 | 94.2% | 186 nM | – | > 15100 nM | – | 174 nM | – | > 15100 nM | – | 102% | 0.6% | 100% | 0% | – | – | N#Cc1ncc(N2C(=O)C3(CCC3)N(c3ccc(OC4CCNC(=O)C4)cc3)C2=S)cc1C(F)(F)F (racemic) [Cpd 195, (R,S)-5-[5-oxo-8-[4-[(2-oxo-4-piperidyl)oxy]phenyl]-7-thioxo-6,8-diazaspiro[3.4]octan-6-yl]-3-(trifluoromethyl)pyridine-2-carbonitrile]
9 | 61.4% | 129 nM | – | > 15100 nM | – | 81.3 nM | – | > 15100 nM | – | 99.6% | 0.2% | 99.6% | 2.3% | – | – | N#Cc1ncc(N2C(=O)C3(CCC3)N(c3ccc(O[C@H]4CCN[C@H](CO)C4)cc3)C2=S)cc1C(F)(F)F (racemic) [Cpd 222, 5-[8-(2SR,4SR)[4-[[2-(hydroxymethyl)-4-piperidyl]oxy]phenyl]-5-oxo-7-thioxo-6,8-diazaspiro[3.4]octan-6-yl]-3-(trifluoromethyl)pyridine-2-carbonitrile]
10 | 6.3% | – | 101% | > 15100 nM | 0.1% | – | 101% | > 15100 nM | -0.1% | – | – | – | – | 6.94 | 7.07 | CN1CCC(Oc2ccc(N3C(=S)N(c4cnc(C#N)c(C(F)(F)F)c4)C(=O)C34CCC4)cn2)CC1 [Cpd 1, 5-[8-[6-[(1-methyl-4-piperidyl)oxy]-3-pyridyl]-5-oxo-7-thioxo-6,8-diazaspiro[3.4]octan-6-yl]-3-(trifluoromethyl)pyridine-2-carbonitrile]
11 | 1.6% | 245 nM | 101% | > 15100 nM | 0.2% | 123 nM | 99.9% | > 15100 nM | 0.5% | – | – | – | – | – | – | Cc1cc(N2C(=O)C3(CCC3)N(c3ccc(OC4CCN(C)CC4)nc3)C2=S)cnc1C#N [Cpd 2, 3-methyl-5-[8-[6-[(1-methyl-4-piperidyl)oxy]-3-pyridyl]-5-oxo-7-thioxo-6,8-diazaspiro[3.4]octan-6-yl]pyridine-2-carbonitrile]
12 | 4.8% | – | 102% | > 15100 nM | 0.4% | – | 101% | > 15100 nM | 0.4% | – | – | – | – | 6.52 | 6.67 | COc1cc(N2C(=O)C3(CCC3)N(c3ccc(OC4CCN(C)CC4)cc3)C2=S)cnc1C#N [Cpd 23, 3-methoxy-5-[8-[4-[(1-methyl-4-piperidyl)oxy]phenyl]-5-oxo-7-thioxo-6,8-diazaspiro[3.4]octan-6-yl]pyridine-2-carbonitrile]
13 | 25.4% | 170 nM | 101% | > 15100 nM | 0.5% | 83.2 nM | 101% | > 15100 nM | 0.6% | – | – | – | – | – | – | CN1CCC(Oc2ccc(N3C(=S)N(c4cnc(C#N)c(Cl)c4)C(=O)C34CCC4)cc2)CC1 [Cpd 24, 3-chloro-5-[8-[4-[(1-methyl-4-piperidyl)oxy]phenyl]-5-oxo-7-thioxo-6,8-diazaspiro[3.4]octan-6-yl]pyridine-2-carbonitrile]
